Assay results reported in patent publication US12258358B1, “Ferrocene-substituted organometallic complexes” (THE REGENTS OF THE UNIVERSITY OF CALIFORNIA, priority 2023, dated 2025).

Experiment: Cyclic voltammetry (CV) in MeCN electrolyte solution
Type: physicochemical
Details: for range over which the redox couples are observed (estimation of the Vcell): symmetric battery configuration assumed
Procedure: Cyclic voltammetry (CV) measurements were used to determine the E1/2 values for 2-OTf and 3-OTf, and those measurements were performed in 0.1 Bu4NBF4 MeCN solution. Five redox couples, corresponding to 8 electron transfer (ET) events were observed over the potential range for 2-OTf and 3-OTf, respectively (FIGS. 3A and 3B). The electrochemistry of 2 is expected to be the same as 2-OTF, although 2-OTf has different solubility. The range of about 1.8 V over which the redox couples are observed provides an estimation of the Vcell for a battery which could be constructed using 2^+ as the analyte, if the battery is constructed with a symmetric configuration where 2 is the analyte for both the cathode and anode.
Cyclic voltammograms (CVs) were recorded in a nitrogen-filled glovebox with a CH Instruments Electrochemical Analyzer Model 620D or 1400 with a glassy carbon working electrode (CH Instruments, nominal surface area of 0.071 cm^2), a platinum wire auxiliary electrode, and an Ag/AgNO3 (0.001M) non-aqueous reference electrode with a Vycor tip. All potentials are referenced to the SCE couple, and ferrocene was used as an external standard where the E1/2 of ferrocene/ferrocenium is +0.40 V vs. SCE in 0.1 M Bu4NPF6 MeCN. Bu4NPF6 was recrystallized from ethanol and placed under vacuum for 72 hours before electrolyte solutions were made. Electrolyte solutions were stored over 3 Å molecular sieves for at least 48 hours before use. Sieves were activated by heating under vacuum at 270° C. for at least 72 hours. UV-Vis spectra were obtained using a 1 cm cuvette using an Agilent 8453 UV-vis spectrophotometer.

[1] = 0.1 Bu4NBF4 MeCN solution, glassy carbon working electrode

Row | Substance | electron transfer (ET) events observed over the potential range (five redox couples) (0.1 Bu4NBF4 MeCN solution) | E1/2 of the 3^0/− couple [1] [V vs SCE] | E1/2 of the 3^2+/+ couple [1] | E1/2 of the 3^6+/2+ four-electron couple [1] | E1/2 of the 3^+/0 couple [1] [V vs SCE] | E1/2 of the 3^−/2− couple [1] [V vs SCE] | range over which the redox couples are observed (estimation of the Vcell)
1 | [(^EtOFcI2P^−)2Al)](OTf) [Complex 3-OTf] | 8 | −1.02 | +0.00 V vs SCE | +0.60 V vs SCE | −0.33 | −1.39 | 1.9 V
2 | [(FcI2P^−)2Al)]OTf [Complex 2-OTf] | 8 |  |  |  |  |  | about 1.8 V
